From US10538498B2, “1,3,4-oxadiazole sulfonamide derivative compounds as histone deacetylase 6 inhibitor, and the pharmaceutical composition comprising the same” (Chong Kun Dang Pharmaceutical Corp., priority 2015, dated 2020)

Target: T1, human recombinant HDAC6 (Homo sapiens, UniProt Q9UBN7)
T1 construct: purchased Calbiochem 382180
T1 sequence (Q9UBN7 1-1215): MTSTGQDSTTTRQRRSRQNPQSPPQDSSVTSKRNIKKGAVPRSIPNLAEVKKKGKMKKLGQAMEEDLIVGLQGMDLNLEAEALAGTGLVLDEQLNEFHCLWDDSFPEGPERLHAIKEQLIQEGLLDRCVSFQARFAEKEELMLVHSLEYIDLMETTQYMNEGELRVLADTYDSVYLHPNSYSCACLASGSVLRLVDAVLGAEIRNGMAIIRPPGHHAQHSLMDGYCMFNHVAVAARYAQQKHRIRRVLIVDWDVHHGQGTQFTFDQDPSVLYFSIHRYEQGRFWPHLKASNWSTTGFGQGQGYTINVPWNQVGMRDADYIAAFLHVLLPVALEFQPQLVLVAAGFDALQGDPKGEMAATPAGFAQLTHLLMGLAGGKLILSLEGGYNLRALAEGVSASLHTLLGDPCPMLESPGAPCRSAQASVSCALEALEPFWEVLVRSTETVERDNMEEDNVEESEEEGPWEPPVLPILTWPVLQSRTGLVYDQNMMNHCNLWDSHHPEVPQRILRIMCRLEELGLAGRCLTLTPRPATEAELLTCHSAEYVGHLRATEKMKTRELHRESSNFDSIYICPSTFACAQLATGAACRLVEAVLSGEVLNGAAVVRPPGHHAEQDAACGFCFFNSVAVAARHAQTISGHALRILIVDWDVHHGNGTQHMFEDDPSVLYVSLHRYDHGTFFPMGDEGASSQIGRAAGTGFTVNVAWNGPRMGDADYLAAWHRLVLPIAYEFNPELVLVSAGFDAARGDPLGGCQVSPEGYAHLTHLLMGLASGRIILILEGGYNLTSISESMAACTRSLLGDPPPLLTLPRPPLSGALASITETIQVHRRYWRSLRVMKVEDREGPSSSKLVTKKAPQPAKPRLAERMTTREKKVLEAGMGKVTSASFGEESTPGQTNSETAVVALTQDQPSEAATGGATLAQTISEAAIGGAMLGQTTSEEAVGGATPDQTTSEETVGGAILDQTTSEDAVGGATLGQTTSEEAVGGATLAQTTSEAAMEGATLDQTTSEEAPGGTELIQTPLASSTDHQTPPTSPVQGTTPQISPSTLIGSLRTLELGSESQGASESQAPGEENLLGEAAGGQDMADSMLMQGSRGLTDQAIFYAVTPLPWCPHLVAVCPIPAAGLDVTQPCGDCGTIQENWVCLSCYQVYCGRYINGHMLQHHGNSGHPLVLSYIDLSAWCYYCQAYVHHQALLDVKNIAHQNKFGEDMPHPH
Assay: HDAC6 enzyme activity inhibition assay (HDAC Fluorimetric Drug Discovery Kit)
Assay type: biochemical
Settings: for HDAC6 selectivity (fold): HDAC1 vs HDAC6; for IC50: same protocol as the HDAC1 enzyme activity test
Outline: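 First, compound in 5-fold dilution steps is combined with 0.3 μg enzyme and 10 μM Fluor de Lys-SIRT1 substrate. After 60 min at 30° C, developer is added for 30 min. Fluorescence at Ex 360/Em 460 then gives IC50 values.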

Structure (SMILES)	HDAC6 selectivity (fold)	IC50 [nM]
CC(=O)N1CCN(CCCS(=O)(=O)N(Cc2ccc(-c3nnc(C(F)F)o3)cc2)c2ccccc2)CC1 [Compound 11656, 3-(4-acetylpiperazin-1-yl)-N-(4-(5-(difluoromethyl)-1,3,4-oxadiazol-2-yl)benzyl)-N-phenylpropane-1-sulfonamide]	1587	63
O=S(=O)(CCCN1CCCCC1)N(Cc1ccc(-c2nnc(C(F)F)o2)cc1)c1ccccc1 [Compound 11657, N-(4-(5-(difluoromethyl)-1,3,4-oxadiazol-2-yl)benzyl)-N-phenyl-3-(piperidin-1-yl)propane-1-sulfonamide]	1219	82
CN1CCN(CCCS(=O)(=O)N(Cc2ccc(-c3nnc(C(F)F)o3)cc2)c2ccccc2)CC1 [Compound 11658, N-(4-(5-(difluoromethyl)-1,3,4-oxadiazol-2-yl)benzyl)-3-(4-methylpiperazin-1-yl)-N-phenylpropane-1-sulfonamide]	2500	40
O=S(=O)(CCN1CCN(Cc2ccccc2)CC1)N(Cc1ccc(-c2nnc(C(F)F)o2)cc1)c1ccccc1 [Compound 11663, 2-(4-benzylpiperazin-1-yl)-N-(4-(5-(difluoromethyl)-1,3,4-oxadiazol-2-yl)benzyl)-N-phenylethanesulfonamide]	578	173
C[C@@H]1CN(CCCS(=O)(=O)N(Cc2ccc(-c3nnc(C(F)F)o3)cc2)c2ccccc2)C[C@H](C)N1C [Compound 11665, N-(4-(5-(difluoromethyl)-1,3,4-oxadiazol-2-yl)benzyl)-N-phenyl-3-((3R,5S)-3,4,5-trimethylpiperazin-1-yl)propane-1-sulfonamide]	5263	19
CS(=O)(=O)N(Cc1ccc(-c2nnc(C(F)F)o2)cc1)CC12CC3CC(CC(C3)C1)C2 [Compound 11668, N-((adamantan-1-yl)methyl)-N-(4-(5-(difluoromethyl)-1,3,4-oxadiazol-2-yl)benzyl)methanesulfonamide]	724	138
CS(=O)(=O)N(Cc1ccc(-c2nnc(C(F)F)o2)cn1)CC12CC3CC(CC(C3)C1)C2 [Compound 11669, N-((adamantan-1-yl)methyl)-N-((5-(5-(difluoromethyl)-1,3,4-oxadiazol-2-yl)pyridin-2-yl)methyl)methanesulfonamide]	900	111
CC1CCN(CCS(=O)(=O)N(Cc2ccc(-c3nnc(C(F)F)o3)cc2)c2ccccc2)CC1 [Compound 11675, N-(4-(5-(difluoromethyl)-1,3,4-oxadiazol-2-yl)benzyl)-2-(4-methylpiperidin-1-yl)-N-phenylethanesulfonamide]	549	182
O=C(OCC1CCN(CCS(=O)(=O)N(Cc2ccc(-c3nnc(C(F)F)o3)cc2)c2ccccc2)CC1)C(F)F [Compound 11676, (1-(2-(N-(4-(5-(difluoromethyl)-1,3,4-oxadiazol-2-yl)benzyl)-N-Phenylsulfamoyl)ethyl)piperidin-4-yl)methyl 2,2-difluoroacetate]	1408	71
CC(C)(C)OC(=O)N(C(=O)C(F)F)C1CCN(CCS(=O)(=O)N(Cc2ccc(-c3nnc(C(F)F)o3)cc2)c2ccccc2)CC1 [Compound 11677, tert-butyl 2,2-difluoroacetyl(1-(2-(N-(4-(5-(difluoromethyl)-1,3,4-oxadiazol-2-yl)benzyl)-N-phenylsulfamoyl)ethyl)piperidin-4-yl)carbamate]	1754	57
O=S(=O)(C1CCN(C2COC2)CC1)N(Cc1ccc(-c2nnc(C(F)F)o2)cc1)c1cccc(Cl)c1 [Compound 11681, N-(3-chlorophenyl)-N-(4-(5-(difluoromethyl)-1,3,4-oxadiazol-2-yl)benzyl)-1-(oxetan-3-yl)piperidine-4-sulfonamide]	6667	15
Cc1cccc(N(Cc2ccc(-c3nnc(C(F)F)o3)cc2)S(=O)(=O)C2CCN(C3COC3)CC2)c1 [Compound 11682, N-(4-(5-(difluoromethyl)-1,3,4-oxadiazol-2-yl)benzyl)-1-(oxetan-3-yl)-N-(m-tolyl)piperidine-4-sulfonamide]	4545	22
O=S(=O)(C1CCN(C2COC2)CC1)N(Cc1ccc(-c2nnc(C(F)F)o2)cn1)c1cccc(Cl)c1 [Compound 11683, N-(3-chlorophenyl)-N-((5-(5-(difluoromethyl)-1,3,4-oxadiazol-2-yl)pyridin-2-yl)methyl)-1-(oxetan-3-yl)piperidine-4-sulfonamide]	14285	7
Cc1cccc(N(Cc2ccc(-c3nnc(C(F)F)o3)cn2)S(=O)(=O)C2CCN(C3COC3)CC2)c1 [Compound 11684, N-((5-(5-(difluoromethyl)-1,3,4-oxadiazol-2-yl)pyridin-2-yl)methyl)-1-(oxetan-3-yl)-N-(m-tolyl)piperidine-4-sulfonamide]	6250	16
CN(C)CCCS(=O)(=O)N(Cc1ccc(-c2nnc(C(F)F)o2)cc1)c1ccccc1 [Compound 11685, N-(4-(5-(difluoromethyl)-1,3,4-oxadiazol-2-yl)benzyl)-3-(dimethylamino)-N-phenylpropane-1-sulfonamide]	5882	17
Cc1cccc(N(Cc2ccc(-c3nnc(C(F)F)o3)cc2)S(=O)(=O)C2CCN(C3CC4CCC3C4)CC2)c1 (centres unmarked) [Compound 11693, 1-(bicyclo[2.2.1]heptan-2-yl)-N-(4-(5-(difluoromethyl)-1,3,4-oxadiazol-2-yl)benzyl)-N-(m-tolyl)piperidine-4-sulfonamide]	198	504
Cc1cccc(N(Cc2ccc(-c3nnc(C(F)F)o3)cc2)S(=O)(=O)C2CCN(C3CCC(F)(F)CC3)CC2)c1 [Compound 11694, 1-(4,4-difluorocyclohexyl)-N-(4-(5-(difluoromethyl)-1,3,4-oxadiazol-2-yl)benzyl)-N-(m-tolyl)piperidine-4-sulfonamide]	215	464
Cc1cccc(N(Cc2ccc(-c3nnc(C(F)F)o3)cc2)S(=O)(=O)C2CCN([C@H]3CC[C@H](C(F)(F)F)CC3)CC2)c1 [Compound 11697, N-(4-(5-(difluoromethyl)-1,3,4-oxadiazol-2-yl)benzyl)-N-(m-tolyl)-1-((1r,4r)-4-(trifluoromethyl)cyclohexyl)piperidine-4-sulfonamide]	101	988
Cc1cccc(N(Cc2ccc(-c3nnc(C(F)F)o3)cc2)S(=O)(=O)C2CCN([C@H]3CC[C@@H](C(F)(F)F)CC3)CC2)c1 [Compound 11698, N-(4-(5-(difluoromethyl)-1,3,4-oxadiazol-2-yl)benzyl)-N-(m-tolyl)-1-((1s,4s)-4-(trifluoromethyl)cyclohexyl)piperidine-4-sulfonamide]	151	661
Cc1cccc(N(Cc2ccc(-c3nnc(C(F)F)o3)cc2)S(=O)(=O)C2CCN(C3CCOCC3)CC2)c1 [Compound 11699, N-(4-(5-(difluoromethyl)-1,3,4-oxadiazol-2-yl)benzyl)-1-(tetrahydro-2H-pyran-4-yl)-N-(m-tolyl)piperidine-4-sulfonamide]	776	129
O=S(=O)(CCN1CCCC(O)C1)N(Cc1ccc(-c2nnc(C(F)F)o2)cc1)c1ccccc1 (centres unmarked) [Compound 11700, N-(4-(5-(difluoromethyl)-1,3,4-oxadiazol-2-yl)benzyl)-2-(3-hydroxypiperidin-1-yl)-N-phenylethanesulfonamide]	782	128
O=S(=O)(CCCN1CC[C@H](F)C1)N(Cc1ccc(-c2nnc(C(F)F)o2)cc1)c1ccccc1 [Compound 11705, (S)—N-(4-(5-(difluoromethyl)-1,3,4-oxadiazol-2-yl)benzyl)-3-(3-fluoropyrrolidin-1-yl)-N-phenylpropane-1-sulfonamide]	637	157
